Source: patent US11697689B2, “Use of antibody against O-acetylated GD2 ganglioside to improve the therapeutic potential of drugs” (OGD2 PHARMA, priority 2016, dated 2023)
Like-named read-outs stand apart in the source and are kept apart here.

What was measured:
LAN-1 cells [1] = assay: Incorporation of anti-cancer agents in cells, flow cytometry; format: cell-based, human; conditions: 5-FU and cisplatin 1.52 μM, doxorubicin […], mAb 8B6 40 μg/ml, 30 minutes at 37° C.
Protocol: FIG. 3: Internalization of 5-FU, Cisplatin and doxorubicin in neuroblastoma cells. LAN-1 cells were treated with 5-FU (1.52 μM)—Panel A, or Cisplatin (1.52 μM)—Panel B, or doxorubicin (4.7 μM)—Panels C and D with combinations of isotype-matched negative control mouse IgG3 (40 μg/ml) or anti-OAcGD2 mAb 8B6, anti-OAcGD2 mAb c8B6.14b, anti-OAcGD2 mAb c8B6.15b (40 μg/ml). Anti-cancer agents and mAb were incubated during 30 minutes at 37° C. Neuroblastoma cells were fixed with PFA 4% before FACS acquisition. Positive control was performed by treatment of fixed LAN-1 cells with saponin 0.05% in combination with anti-cancer agents during 30 minutes. Incorporation of anti-cancer agents in tumor cells was assessed by flow cytometry (excitation with a 535 nm laser) and results are expressed in percentage of cells having incorporated anti-cancer agent in total cell population.
Combinations of anti-OAcGD2 mAb 8B6 with other anti-cancer agents were also assayed on LAN-1 neuroblastoma cell line. In this experiment, incorporation of 5-FU, Cisplatin and doxorubicin within the cells in the presence of mAb 8B6 or CTRL-(IgG) was detected using flow cytometry (excitation with a 535 nm laser). Anti-cancer agents and mAb were incubated during 30 minutes at 37° C.

[2] = test system: DUGAn glioblastoma primary cells; assay: MTT assay, temozolomide with or without mAb 8B6; format: cell-based; conditions: Homo sapiens, temozolomide alone, 72 hours
Protocol: (§1) Tumor specimens were collected from patients with a histologic diagnosis of GBM. Tumors were harvested at the time of surgical resection and immediately put into culture after dissociation of the tumors using the gentleMACs™ Dissociator (Miltenyi) according to the manufacturer's instructions.
(§2) Equivalent culture media volume was added to control wells. […] Cells were exposed to test agents for 72 hours. Following the exposure to test agents, 15 μl of MTT reagent was added to each well.
(§3) Cell viability was measured using the MTT assay and half maximal effective concentration (EC50) was calculated as previously disclosed.

[3] = test system: HARCI glioblastoma primary cells; assay: MTT assay, temozolomide with or without mAb 8B6; format: cell-based; conditions: Homo sapiens; HARCl; temozolomide alone; 72 hours
Protocol: as §1, §2, §3

[4] = test system: DUASOII glioblastoma primary cells; assay: MTT assay, temozolomide with or without mAb 8B6; format: cell-based; conditions: Homo sapiens, temozolomide alone, 72 hours
Protocol: as §1, §2, §3

[5] = test system: GLIO 5 glioblastoma primary cells; assay: MTT assay, temozolomide with or without mAb 8B6; format: cell-based; conditions: Homo sapiens, temozolomide alone, 72 hours
Protocol: as §1, §2, §3

[6] = test system: GUITh glioblastoma primary cells; assay: MTT assay, temozolomide with or without mAb 8B6; format: cell-based; conditions: Homo sapiens, temozolomide alone, 72 hours
Protocol: as §1, §2, §3

[7] = test system: AMBMa glioblastoma primary cells; assay: MTT assay, temozolomide with or without mAb 8B6; format: cell-based; conditions: Homo sapiens, temozolomide alone, 72 hours
Protocol: as §1, §2, §3

[8] = Systemic tolerability, body weight over the treatment period; format: in vivo, A/J mice; conditions: same groups and doses as the NXS2 liver metastasis study
Description: Mean weight of group of mice (n=10) presented in FIG. 6 at day 0 was defined as 100% weight. Weight in each group remained stable for the period of treatment. Δ, mice treated with mAb 8B6; ◯, mice treated with anti-cancer agent; □, mice treated with chemotherapeutic drug plus mAb 8B6.
Weight loss is used as a sensitive marker for health monitoring. We therefore performed a parallel analysis of the body weight over the treatment period. […] The body-weight difference between the two groups treated with doxorubicin compared to the non-doxorubicin group, however, fails to be significant during the treatment period (p>0.05).

[9] = test system: neuroblastoma cell lines NXS2, IMR5, LAN-1 and LAN-5; conditions: NXS2, IMR5, LAN-1, LAN-5
Protocol: (§4) The antiproliferative activity of the anti-cancer agents was evaluated using the MIT Cell Proliferation Assay Kit (Roche Diagnostic, Indianapolis, USA). The MTT assay is based on the reduction of yellow tetrazolium MIT (3-(4,5-dimethylthiazolyl-2)-2,5-diphenyltetrazolium bromide) by metabolically active cells forming purple formazan crystals. The purple formazan is solubilized with detergent and quantified spectrophotometrically at 570 nm.
Cells in the log phase of growth were seeded into 96-well (5×10^3 for LAN-1 and NXS2 cells; 1×10^4 for IMR5 and LAN-5 cells) treated plates in 100 μl of complete media. The cells were allowed to attach during an overnight incubation prior to treating with test agents. […] Equivalent culture media volume was added to control wells. Three conditions were used: anti-cancer agent alone, mAb 8B6 alone, mAb 8B6+anti-cancer agent. Cells were exposed to test agents for 48 hours. Following the exposure to test agents, 15 μl of MIT reagent was added to each well. […] The absorbance at 570 nm was measured the following day using a iMark™ Microplate Absorbance Reader plate reader (Bio-Rad). […] Percent of Control values were calculated by dividing the absorbance values for each test well by the No Drug Control average and multiplying by 100.
Combination data was analyzed using CompuSyn® software to calculate Combination Index values to assess synergy. […]

NXS2 cells [10] = assay: OAcGD2 expression (mAb 8B6 binding) after drug exposure, flow cytometry; conditions: isotretinoin 75, topotecan 0.5, doxorubicin 3 μM (Table 1), mean ± SD
IMR5 cells [11] = assay: as above; conditions: isotretinoin 40, topotecan 1, doxorubicin 7 μM (Table 1), mean ± SD, n = 3, untreated 14.6 ± 0.4
IMR5 cells [12] = assay: MTT cell proliferation assay, drug with or without mAb 8B6; format: cell-based, human; conditions: for EC50: Homo sapiens, 48 hours
Protocol: as §4
(§5) Cells in the log phase of growth were seeded into 96-well (5×10^3 for LAN-1 and NXS2 cells; 1×10^4 for IMR5 and LAN-5 cells) treated plates in 100 μl of complete media. The cells were allowed to attach during an overnight incubation prior to treating with test agents. […] Equivalent culture media volume was added to control wells. Three conditions were used: anti-cancer agent alone, mAb 8B6 alone, mAb 8B6+anti-cancer agent. Cells were exposed to test agents for 48 hours. Following the exposure to test agents, 15 μl of MIT reagent was added to each well. The plates were returned to the incubator for four hours. Following the incubation period, kit supplied detergent reagent (100 μl) was added to all wells. The plates were wrapped in plastic wrap to prevent evaporation and allowed to sit at room temperature in the dark overnight. The absorbance at 570 nm was measured the following day using a iMark™ Microplate Absorbance Reader plate reader (Bio-Rad). Assays were performed in quadruplicate and experiments were repeated three times. […] The median-effect equation used by CompuSyn® software derived from the mass-action law principle at equilibrium steady state. […] Percent of Control values were calculated by dividing the absorbance values for each test well by the No Drug Control average and multiplying by 100.
(§6) Combination data was analyzed using CompuSyn® software to calculate Combination Index values to assess synergy. […] The dosage, fraction affected and molar ratio of compounds tested in combination were entered into the CompuSyn® software for evaluation of the presence/absence of synergy. CompuSyn® assigns a Combination Index value which rates the level of compounds' inhibiting 50% of the cell proliferation. […] See Chou, PHARMACOL.
(§7) NXS2 cells were grown in DMEM 4.5 g/L de glucose with 10% heat-inactivated fetal calf serum, 2 mM L-Glutamine, 100 units/ml penicillin, and 100 μg/ml streptomycin, at 37° C. in 5% CO2.

LAN-1 cells [13] = assay: as above; format: cell-based, human; conditions: for EC50: Homo sapiens, 48 hours
Protocol: as §4, §5, §6, §7

NXS2 cells [14] = assay: as above; format: cell-based, murine; conditions: for EC50: Mus musculus, 48 hours
Protocol: as §4, §5, §6, §7

LAN-5 cells [15] = assay: as above; format: cell-based, human; conditions: for EC50: Homo sapiens, 48 hours
Protocol: Equivalent culture media volume was added to control wells. […] Cells were exposed to test agents for 48 hours.

LAN-1 cells [16] = assay: OAcGD2 expression (mAb 8B6 binding) after drug exposure, flow cytometry; conditions: isotretinoin 40, topotecan 5, doxorubicin 3 μM (Table 1), mean ± SD, n = 3, untreated 12.1 ± 0.1
LAN-5 cells [17] = assay: as above; conditions: isotretinoin 8, topotecan 1, doxorubicin 5 μM (Table 1), mean ± SD, n = 3, untreated 13.2 ± 0.7
[18] = test system: NXS2 neuroblastoma experimental liver metastasis; assay: Murine NXS2 neuroblastoma experimental liver metastasis model; format: in vivo, A/J mice; conditions: day 28 after NXS2 inoculation; mAb 8B6 150 μg cumulative i.v.; isotretinoin 10 mg/kg per os; topotecan 0.36 mg/kg i.p.; doxorubicin 1 mg/kg i.p.; vehicle 2.5±0.18 g; mean±SEM
Protocol: Mice (n=10/group) were inoculated with 2.5×10^5 NXS2 mouse neuroblastoma cells by i.v. injections. 8B6 mAb treatment was started on day 3 after tumor cell inoculation twice a week for 3 consecutive weeks (cumulative dose=150 μg, A-C). All chemotherapeutic treatments were started at day 10 post-tumor inoculation. Panel A: isotretinoin was given at 10 mg/kg, per os, five times weekly for 2 weeks. […] Panel C: doxorubicin was given by i.p. injections at 1 mg/kg five times weekly for 2 weeks. Mice were euthanized 28 days post-tumor inoculation. Anti-tumor efficacy was evaluated by determining the liver weight on the fresh specimen compared to the mice treated with vehicle only. The liver weight is indicative of hepatic metastasis number. The y-axis starts at 0.8 g corresponding to the average normal liver weight. Data are presented as the mean±SEM.
We inoculated 2.5×10^5 tumor cells by tail vein in PBS. […] Anti-OAcGD2 mAb 8B6 treatment was started at Day 3 after tumor cells injection. Mice received by i.v. injection twice a week 25 μg mAb 8B6 for 3 consecutive weeks; (day 3, 7, 10, 14, 17 and 21; total dose=150 μg). Isotretinoin was given orally diluted in Ora-Plus© at 10 mg/kg daily for 2 consecutive weeks (on days 10-14 and 17-21). […] Doxorubicin was given by i.p. injection at 1 mg/kg daily for two weeks (on days 10-14 and 17-21). Mice were sacrificed after 28 days post inoculation, and anti-tumor efficacy was evaluated by liver weight of the fresh specimen as well as hepatic metastasis number. • 6.2—Results
Anti-cancer agents were given at low doses as previously reported in the literature in order to minimize related side effects. Three days after i.v. NSX2 tumor cell inoculation, ten mice were assigned to treatment with single agent, or combination of mAb 8B6 and anti-cancer agents as described previously. On day 28 after tumor cell inoculation, we determined the number of liver metastases and the liver weight after mice euthanasia.

[19] = IMR-5, drug alone, read-out: EC50
[20] = IMR-5, with mAb 8B6 40 μg/ml, read-out: EC50 with mAb 8B6
[21] = LAN1, drug alone, read-out: EC50
[22] = LAN1, with mAb 8B6 40 μg/ml, read-out: EC50 with mAb 8B6
[23] = with mAb 8B6 40 μg/ml, read-out: EC50 with mAb 8B6
[24] = LA-N-5, drug alone, read-out: EC50
[25] = LA-N-5, with mAb 8B6 40 μg/ml, read-out: EC50 with mAb 8B6

N.N.[Cl][Pt][Cl] [cisplatin]
cells positive for the anti-cancer agent when incubated with mAb 8B6 versus agent alone and CTRL-(IgG) (LAN-1 cells [1]): more cells were positive

Cn1nnc2c(C(N)=O)ncn2c1=O [temozolomide]
EC50 [2]: 1120 µM | EC50 [3]: 13100 µM | EC50 [4]: 584 µM | EC50 [5]: 1590 µM | EC50 [6]: 3160 µM | EC50 [7]: 784 µM

COc1cccc2c1C(=O)c1c(O)c3c(c(O)c1C2=O)C[C@@](O)(C(=O)CO)C[C@@H]3O[C@H]1C[C@H](N)[C@H](O)[C@H](C)O1 [Doxorubicin, doxorubicin]
body weight over the treatment period [8]: a loss of body weight after day 17 | median combination index values across the tested neuroblastoma cell lines [9]: ≤ 0.30 | Expression level of OAcGD2 (MFI ratio mAb 8B6 / mAb 7H2) after 48 hours exposure (NXS2 cells [10]; n = 3, untreated 7.3 ± 0.9): 6.48 ± 2.28 | Expression level of OAcGD2 (MFI ratio mAb 8B6 / mAb 7H2) after 48 hours exposure (NXS2 cells [10]; n = 3, untreated 7.3 ± 0.9, listed as doxorubicin): remained unchanged | Expression level of OAcGD2 (MFI ratio mAb 8B6 / mAb 7H2) after 48 hours exposure (IMR5 cells [11]): 15.24 ± 0.21 | Combination index 50 Values (IMR5 cells [12]; CompuSyn, below 1 = synergy): 0.10 | EC50 (IMR5 cells [12]; [19]): 6.3 µM | EC50 (IMR5 cells [12]; [20]): 0.01 µM | Combination index 50 Values (LAN-1 cells [13]; CompuSyn, below 1 = synergy): 0.05 | EC50 (LAN-1 cells [13]; [21]): 4.67 µM | EC50 (LAN-1 cells [13]; [22]): 0.014 µM | Combination index 50 Values (NXS2 cells [14]; CompuSyn, below 1 = synergy): 0.30 | EC50 (NXS2 cells [14]; drug alone, read-out: EC50): 2.75 µM | EC50 (NXS2 cells [14]; [23]): 0.016 µM | Combination index 50 Values (LAN-5 cells [15]; CompuSyn, below 1 = synergy): 0.16 | EC50 (LAN-5 cells [15]; [24]): 2.09 µM | EC50 (LAN-5 cells [15]; [25]): 0.13 µM | Expression level of OAcGD2 (MFI ratio mAb 8B6 / mAb 7H2) after 48 hours exposure (LAN-1 cells [16]): 13.76 ± 1.8 | Expression level of OAcGD2 (MFI ratio mAb 8B6 / mAb 7H2) after 48 hours exposure (LAN-5 cells [17]): 14.36 ± 1.4 | cells positive for the anti-cancer agent when incubated with mAb 8B6 versus agent alone and CTRL-(IgG) (LAN-1 cells [1]): more cells were positive | mean liver weight [18]: 1.75 ± 0.09 g

CC1=C(/C=C/C(C)=C/C=C/C(C)=C\C(=O)O)C(C)(C)CCC1 [Isotretinoin, isotretinoin]
body weight over the treatment period [8]: no loss of body weight | Expression level of OAcGD2 (MFI ratio mAb 8B6 / mAb 7H2) after 48 hours exposure (NXS2 cells [10]; n = 3, untreated 7.3 ± 0.9): 7.5 ± 1.1 | Expression level of OAcGD2 (MFI ratio mAb 8B6 / mAb 7H2) after 48 hours exposure (NXS2 cells [10]; n = 3, untreated 7.3 ± 0.9, listed as isotretinoin): remained unchanged | Expression level of OAcGD2 (MFI ratio mAb 8B6 / mAb 7H2) after 48 hours exposure (IMR5 cells [11]): 19.2 ± 0.8 | EC50 (IMR5 cells [12]; [19]): 32.9 µM | EC50 (IMR5 cells [12]; [20]): 24 µM | EC50 (LAN-1 cells [13]; [21]): 7.4 µM | EC50 (LAN-1 cells [13]; [22]): 4.3 µM | EC50 (NXS2 cells [14]; drug alone, read-out: EC50): 75.7 µM | EC50 (NXS2 cells [14]; [23]): 59.3 µM | EC50 (LAN-5 cells [15]; [24]): 37.2 µM | EC50 (LAN-5 cells [15]; [25]): 31.3 µM | Expression level of OAcGD2 (MFI ratio mAb 8B6 / mAb 7H2) after 48 hours exposure (LAN-1 cells [16]): 12.0 ± 0.1 | Expression level of OAcGD2 (MFI ratio mAb 8B6 / mAb 7H2) after 48 hours exposure (LAN-5 cells [17]): 16.8 ± 0.7 | mean liver weight [18]: 2.0 ± 0.24 g

O=c1[nH]cc(F)c(=O)[nH]1 [5-FU, 5-Fluorouracil]
cells positive for the anti-cancer agent when incubated with mAb 8B6 versus agent alone and CTRL-(IgG) (LAN-1 cells [1]): more cells were positive

CC[C@@]1(O)C(=O)OCc2c1cc1n(c2=O)Cc2cc3c(CN(C)C)c(O)ccc3nc2-1 [Topotecan, topotecan]
body weight over the treatment period [8]: no loss of body weight | EC50 (IMR5 cells [12]; [19]): 0.011 µM | EC50 (IMR5 cells [12]; [20]): 0.007 µM | EC50 (LAN-1 cells [13]; [21]): 0.771 µM | EC50 (LAN-1 cells [13]; [22]): 0.015 µM | EC50 (NXS2 cells [14]; drug alone, read-out: EC50): 0.45 µM | EC50 (NXS2 cells [14]; [23]): 0.15 µM | EC50 (LAN-5 cells [15]; [24]): 12.4 µM | EC50 (LAN-5 cells [15]; [25]): 0.004 µM | mean liver weight [18]: 1.22 ± 0.09 g
